# pIC50, pKi: −log10 of the molar value.
# Assays:
# [1] = target: D(2) dopamine receptor (Homo sapiens) (UniProt P14416); test: Selectivity ratio of Ki of D2 receptor to that of D3 receptor
# [2] = target: Serotonin 2 (5-HT2) receptor (Rattus norvegicus, UniProt P30994+P08909+P14842); test: Compound was evaluated for binding affinity against 5-hydroxytryptamine 2 receptor from rat; type: protein assay
# [3] = target: T1, Adrenergic receptor alpha-1 (Rattus norvegicus, UniProt P15823+P23944+P43140); test: Compound was evaluated for binding affinity against Alpha-1 adrenergic receptor from rat; type: protein assay
# T1 sequence (P15823 whole entry): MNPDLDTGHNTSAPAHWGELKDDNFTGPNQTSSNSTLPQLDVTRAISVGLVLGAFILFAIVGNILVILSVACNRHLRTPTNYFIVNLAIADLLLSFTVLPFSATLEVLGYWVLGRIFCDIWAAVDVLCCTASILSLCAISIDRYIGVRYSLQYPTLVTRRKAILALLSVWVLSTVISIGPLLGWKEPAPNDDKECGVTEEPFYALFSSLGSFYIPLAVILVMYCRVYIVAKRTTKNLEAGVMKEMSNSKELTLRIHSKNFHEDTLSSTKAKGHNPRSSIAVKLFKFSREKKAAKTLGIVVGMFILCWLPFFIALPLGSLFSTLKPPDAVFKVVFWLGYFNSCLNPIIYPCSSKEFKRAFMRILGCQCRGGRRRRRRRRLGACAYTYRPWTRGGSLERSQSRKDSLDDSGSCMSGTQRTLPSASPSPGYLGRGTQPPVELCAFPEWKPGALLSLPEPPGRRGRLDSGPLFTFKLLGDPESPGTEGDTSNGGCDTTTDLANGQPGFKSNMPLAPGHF
# T1 sequence (P23944 whole entry): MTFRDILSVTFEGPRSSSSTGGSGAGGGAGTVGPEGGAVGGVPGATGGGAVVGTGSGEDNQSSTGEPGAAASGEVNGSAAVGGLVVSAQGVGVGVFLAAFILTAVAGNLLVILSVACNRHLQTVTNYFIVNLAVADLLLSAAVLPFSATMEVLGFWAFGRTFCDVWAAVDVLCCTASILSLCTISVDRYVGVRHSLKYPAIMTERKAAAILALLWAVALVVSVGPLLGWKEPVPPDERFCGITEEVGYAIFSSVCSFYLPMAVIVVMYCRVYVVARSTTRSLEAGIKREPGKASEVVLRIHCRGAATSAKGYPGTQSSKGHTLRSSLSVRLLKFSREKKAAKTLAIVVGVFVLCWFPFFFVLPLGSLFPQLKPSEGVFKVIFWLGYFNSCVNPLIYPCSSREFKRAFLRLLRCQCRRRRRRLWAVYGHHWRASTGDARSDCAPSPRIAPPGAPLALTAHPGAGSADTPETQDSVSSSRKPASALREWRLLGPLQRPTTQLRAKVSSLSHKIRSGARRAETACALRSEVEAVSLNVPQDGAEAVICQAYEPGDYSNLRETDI
# T1 sequence (P43140 whole entry): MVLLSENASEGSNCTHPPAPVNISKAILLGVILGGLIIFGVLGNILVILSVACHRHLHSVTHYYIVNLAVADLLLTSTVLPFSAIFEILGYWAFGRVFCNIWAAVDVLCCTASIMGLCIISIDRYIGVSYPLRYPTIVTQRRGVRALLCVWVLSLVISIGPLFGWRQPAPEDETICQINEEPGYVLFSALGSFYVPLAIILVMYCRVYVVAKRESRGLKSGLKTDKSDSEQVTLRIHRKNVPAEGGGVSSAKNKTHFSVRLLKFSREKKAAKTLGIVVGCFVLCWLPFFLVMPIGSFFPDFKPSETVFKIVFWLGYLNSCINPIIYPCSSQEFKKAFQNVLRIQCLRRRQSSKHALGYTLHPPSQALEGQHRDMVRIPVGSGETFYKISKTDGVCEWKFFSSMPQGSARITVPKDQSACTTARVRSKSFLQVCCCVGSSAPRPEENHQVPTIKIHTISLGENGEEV
# D(1A) dopamine receptor = D(1A) dopamine receptor (Homo sapiens, UniProt P21728); test: Compound was evaluated for binding affinity against Dopamine receptor D1 transfected in CHO cell membranes
# D(3) dopamine receptor = D(3) dopamine receptor (Homo sapiens, UniProt P35462); test: Compound was evaluated for binding affinity against human Dopamine receptor D3 transfected in CHO cell membranes to stimulate [3H]thymidine uptake
# D(4) dopamine receptor [4] = target: T2, D(4) dopamine receptor (Homo sapiens, UniProt P21917); test: Compound was evaluated for binding affinity against human Dopamine receptor D4 transfected in CHO cell membranes
# T2 sequence (P21917 whole entry): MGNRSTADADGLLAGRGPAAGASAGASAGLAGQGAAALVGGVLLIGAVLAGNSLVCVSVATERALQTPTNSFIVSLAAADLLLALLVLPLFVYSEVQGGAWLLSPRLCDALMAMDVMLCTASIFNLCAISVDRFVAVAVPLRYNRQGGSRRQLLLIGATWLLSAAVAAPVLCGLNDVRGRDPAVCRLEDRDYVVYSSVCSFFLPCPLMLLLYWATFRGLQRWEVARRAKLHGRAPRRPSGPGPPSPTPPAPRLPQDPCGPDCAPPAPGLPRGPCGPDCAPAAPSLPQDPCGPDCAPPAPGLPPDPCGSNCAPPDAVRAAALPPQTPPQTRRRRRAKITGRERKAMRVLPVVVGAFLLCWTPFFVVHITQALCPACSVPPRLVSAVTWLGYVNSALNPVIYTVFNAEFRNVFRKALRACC
# D(1B) dopamine receptor = D(1B) dopamine receptor (Homo sapiens, UniProt P21918); test: Compound was evaluated for binding affinity against human Dopamine receptor D5 transfected in CHO cell membranes
# CHO = test: (§1) Compound was tested for stimulation of mitogenesis in CHO.hD3 cells in a dose dependent manner; type: functional, cell-based; details: Cricetulus griseus
# CHO-hD3 = test: as §1; type: functional, cell-based; details: Cricetulus griseus
# D(4) dopamine receptor [5] = target: T2, D(4) dopamine receptor; test: Affinity against D4 receptor was evaluated
# Chain of D(1A) dopamine receptor (P21728 whole entry): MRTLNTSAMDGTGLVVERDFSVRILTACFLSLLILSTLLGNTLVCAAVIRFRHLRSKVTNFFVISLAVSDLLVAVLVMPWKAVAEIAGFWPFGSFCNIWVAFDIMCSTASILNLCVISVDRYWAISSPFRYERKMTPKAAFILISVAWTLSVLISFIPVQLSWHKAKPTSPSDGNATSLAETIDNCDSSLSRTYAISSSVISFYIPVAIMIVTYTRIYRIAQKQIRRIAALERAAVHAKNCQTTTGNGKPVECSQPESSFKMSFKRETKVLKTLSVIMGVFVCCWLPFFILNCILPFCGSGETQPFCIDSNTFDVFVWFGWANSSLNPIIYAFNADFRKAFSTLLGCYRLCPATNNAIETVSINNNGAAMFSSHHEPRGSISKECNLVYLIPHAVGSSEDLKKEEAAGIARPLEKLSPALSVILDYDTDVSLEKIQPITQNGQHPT
# Chain of D(1B) dopamine receptor (P21918 whole entry): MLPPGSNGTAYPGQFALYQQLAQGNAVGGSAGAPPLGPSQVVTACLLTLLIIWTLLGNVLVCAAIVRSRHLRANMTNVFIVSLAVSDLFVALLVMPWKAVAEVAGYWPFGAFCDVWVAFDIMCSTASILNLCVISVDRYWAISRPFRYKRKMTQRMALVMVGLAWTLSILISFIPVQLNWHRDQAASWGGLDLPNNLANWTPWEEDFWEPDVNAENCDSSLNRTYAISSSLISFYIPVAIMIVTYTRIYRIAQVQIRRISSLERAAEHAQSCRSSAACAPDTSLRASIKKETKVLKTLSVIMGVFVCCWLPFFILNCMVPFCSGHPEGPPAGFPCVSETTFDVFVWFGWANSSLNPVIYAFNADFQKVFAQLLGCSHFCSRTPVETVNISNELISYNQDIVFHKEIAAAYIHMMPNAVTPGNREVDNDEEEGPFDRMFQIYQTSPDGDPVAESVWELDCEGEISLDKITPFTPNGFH
# Chain of D(2) dopamine receptor (Homo sapiens) (P14416 whole entry): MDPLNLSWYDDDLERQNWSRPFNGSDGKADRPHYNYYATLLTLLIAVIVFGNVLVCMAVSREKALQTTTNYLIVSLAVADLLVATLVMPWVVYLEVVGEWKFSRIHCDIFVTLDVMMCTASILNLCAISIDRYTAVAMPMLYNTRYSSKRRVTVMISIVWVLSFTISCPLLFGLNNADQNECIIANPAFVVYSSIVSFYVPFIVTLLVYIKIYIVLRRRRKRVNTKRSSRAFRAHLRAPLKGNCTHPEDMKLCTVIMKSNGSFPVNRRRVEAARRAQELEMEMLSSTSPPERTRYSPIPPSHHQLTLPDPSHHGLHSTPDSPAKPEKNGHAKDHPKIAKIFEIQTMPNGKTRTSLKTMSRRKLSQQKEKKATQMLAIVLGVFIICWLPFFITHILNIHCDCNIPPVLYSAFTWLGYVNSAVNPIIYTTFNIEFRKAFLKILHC
# Chain of D(3) dopamine receptor (P35462 whole entry): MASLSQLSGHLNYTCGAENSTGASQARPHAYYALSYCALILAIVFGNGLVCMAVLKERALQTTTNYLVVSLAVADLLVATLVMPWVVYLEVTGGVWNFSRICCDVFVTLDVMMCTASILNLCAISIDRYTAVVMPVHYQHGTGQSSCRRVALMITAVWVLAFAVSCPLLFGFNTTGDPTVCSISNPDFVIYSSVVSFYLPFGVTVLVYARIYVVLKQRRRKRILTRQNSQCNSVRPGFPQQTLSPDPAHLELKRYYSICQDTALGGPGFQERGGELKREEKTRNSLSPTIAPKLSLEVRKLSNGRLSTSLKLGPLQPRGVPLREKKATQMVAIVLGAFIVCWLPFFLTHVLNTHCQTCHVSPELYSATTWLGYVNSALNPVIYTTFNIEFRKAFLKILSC
SMILES,Ki [2] [nM],Ki [3] [nM],pKi (D(1A) dopamine receptor),pKi (D(4) dopamine receptor [4]),pKi (D(1B) dopamine receptor),pIC50 (CHO-hD3),also measured
CCCCN1CCCC1CNC(=O)c1cc(C#N)c2ccccc2c1OC (stereo unspecified),–,–,–,–,–,–,Ratio [1]: 10
O=C(NCCCCN1CCN(c2cccc(Cl)c2Cl)CC1)c1ccc2c(c1)-c1ccccc1-2,125,547,< 5.00,< 5.30,< 5.00,–,pKi (D(3) dopamine receptor): 9.05; pIC50 (CHO): 8.17
O=C(CCCN1CCC(O)(c2ccc(Cl)cc2)CC1)c1ccc(F)cc1 [HALOPERIDOL],–,–,–,–,–,8.06,–
COc1c(C(=O)NCCN2CCN(c3cccc(Cl)c3Cl)CC2)cc(Br)c2ccccc12,–,–,–,–,–,–,pKi (D(4) dopamine receptor [5]): 7.19
O=C(NCCCCN1CCN(c2cccc(Cl)c2Cl)CC1)c1ccc2c(c1)Cc1ccccc1-2,223,642,< 5.00,< 5.30,< 5.00,8.30,–

# — ChEMBL document CHEMBL1130602 (Bioorg Med Chem Lett, 1998)
